Laboratory results reported in paper PMC5803421 (International journal of pharmaceutics, 2017).

Test system: anesthetized acute SCI female rats (bladder pressure)
Experiment: Isovolumetric cystometry in anesthetized acute spinal cord injured rats
Type: in vivo, rat
Conditions: antagonist 1 mg/kg i.v. after ODT LMN-NKA (4.6 mg/kg)

## COC1(C[S@@+]([O-])c2ccccc2)CCN(CCc2c[nH]c3ccc(F)cc23)CC1 [GR 159898]
  effect on LMN-NKA ODT mediated increase in bladder pressure: readily reversed
